Here are results for four molecules from patent US11766044B2, “Method for controlling PPO resistant weeds” (BASF SE, priority 2016, dated 2023).

Like-named read-outs stand apart in the source and are kept apart here.

Experiment [1] concerns sensitive (w.10) and resistant weeds (w.11, w.12). In words: Third greenhouse experiment, summary in words. It counts as in vivo, Amaranthus tamariscinus. As to conditions: table 4, 2 and 4 g/ha.
In experiment [2] the test system is Amaranthus tamariscinus (AMATA, common waterhemp), Sensitive (w.1). In kind it is in vivo.
The subject of experiment [3] is Amaranthus tamariscinus (AMATA, common waterhemp), PPO resistant biotype 1 (w.2). It counts as in vivo. As to conditions: scale 0 to 100.
Experiment [4] concerns Amaranthus tamariscinus (AMATA, common waterhemp), PPO resistant biotype 2 (w.3). In kind it is in vivo. Particulars: scale 0 to 100.
In experiment [5] the test system is Ambrosia elatior (AMBEL, common ragweed), Sensitive (w.4). It counts as in vivo. As to conditions: scale 0 to 100.
Experiment [6] deals with Amaranthus tuberculatus (AMATU, tall waterhemp), Sensitive (w.7). In words: Greenhouse herbicidal activity test, another (second) experiment, weed w.7. Particulars: scale 0 to 100. In kind it is in vivo.
Experiment [7] relates to sensitive (w.1, w.4) and resistant weeds (w.2, w.3, w.5, w.6). Description: First greenhouse experiment, summary in words. As to conditions: table 2, 1 and 2 g/ha. It counts as in vivo, Amaranthus tamariscinus, Ambrosia elatior.

Turning to `C#CCOc1cc(-n2nc3n(c2=O)CCCC3)c(Cl)cc1Cl` [azafenidin, reference compound], the “control of resistant in comparison to sensitive biotypes” value in experiment [1] is reported as “much weaker control”.
Regarding `CCOC(=O)COc1ncccc1Oc1cc(-n2c(=O)cc(C(F)(F)F)n(C)c2=O)c(F)cc1Cl` [compound (I).1], the “Weed control (%) w.1” value in experiment [2] (use rate 1 g/ha, scale 0 to 100) turned out to be 100%; in experiment [2] (use rate 2 g/ha, scale 0 to 100, 100 = complete destruction) it was 100%. Further, the “Weed control (%) w.2” value in experiment [3] (use rate 1 g/ha) and in experiment [3] (use rate 2 g/ha) was 100% in each case. The “Weed control (%) w.3” value in experiment [4] (use rate 1 g/ha) and in experiment [4] (use rate 2 g/ha) was 100% in each case. In addition, the “Weed control (%) w.4” value in experiment [5] (use rate 1 g/ha) and in experiment [5] (use rate 2 g/ha) was 100% in each case. Further, the “Weed control (%) 7” value in experiment [6] (use rate 1 g/ha) and in experiment [6] (use rate 2 g/ha) was 100% each time. Also, the “activity on both sensitive and resistant weeds” value in experiment [7] (sensitive w.1, w.4, resistant w.2, w.3, w.5, w.6) is on record as “very good activity”.
In the case of `CCOC(=O)COc1ccccc1Oc1cc(-n2c(=O)cc(C(F)(F)F)n(C)c2=O)c(F)cc1Cl` [compound (I).4], the “activity on both sensitive and resistant weeds” value in experiment [1] (sensitive w.10, resistant w.11, w.12) is “very good activity”.
In the case of `C#CCN1C(=O)COc2cc(F)c(N3C(=O)C4=C(CCCC4)C3=O)cc21` [flumioxazin, reference compound], the “control of resistant in comparison to sensitive biotypes” value in experiment [7] is listed as “much weaker control”.
